We go through 18 compounds from US20230159511A1, “TETRAHYDROISOQUINOLINE COMPOUNDS AS NRF2 ACTIVATORS” (C4X Discovery Limited, priority 2020, published 2023).

Experiment [1] concerns the target T1, human KEAP1 (N-term, residues 321-609) (Homo sapiens, UniProt Q14145).
T1 construct: human KEAP1 (N-term, residues 321-609)
Briefly: KEAP1 Kelch Fluorescence Polarization (FP) Assay. Type of experiment: binding. The settings on record: inhibition of Kelch domain-NRF2 interaction; 2 nM FITC-labelled NRF2 peptide, 25 nM KEAP1, 1 h room temperature; compounds below 10 nM cannot be differentiated. On the procedure:
KEAP1 Kelch Fluorescence Polarization (FP) Assay Method
Inhibition of the Kelch domain-NRF2 interaction was determined using a fluorescence polarization-based competition assay in a black 384-well microplate. Compounds were tested at a starting concentration of 10 μM serially diluted 1:3 to generate a 12-point dose response curve on the Biomek FX robot. Each well contained 2 nM FITC-labelled NRF2 peptide (FITC-LDEETGEFL-NH2) and 25 nM human KEAP1 (N-term, residues 321-609) enzyme in a final volume of 20 μL of assay buffer (50 mM Tris-HCl pH 8.0, 100 mM NaCl, 5 mM MgCl2, 0.005% Tween-20, 0.005% BSA, 0.5% DMSO) in the presence of varying concentrations of test compound. Unlabelled peptide (LDEETGEFL-NH2) at 50 μM (negative control) and 0.5% DMSO (positive control) was used to determine the assay window.
After 1 h at room temperature, fluorescence polarization (excitation 470 nm/emission 530 nm) was measured using an Envision plate reader. IC50 values were determined by fitting the data to a four parameter logistic fit using XLfit or XE Runner within ActivityBase. The assay limit is such that compounds below 10 nM cannot be differentiated.
In general terms: In fluorescence polarisation assays a small probe gives low polarisation when free and higher when bound to something large.

Experiment [2] has as its system NRF2 mediated gene NAD(P)H:quinone acceptor oxidoreductase 1 (NQO1) in BEAS-2B cells. Briefly: Beas2B NQO1 mRNA Cell Based Assay. Further details: species or system human. The note with it: Homo sapiens; BEAS-2B cells, compound for 24 h; increase in NQO1 mRNA compared to vehicle (0.1% DMSO) control; read-out: EC50. On the procedure:
Beas2B NQO1 mRNA Cell Based Assay
The up regulation of the NRF2 mediated gene NAD(P)H:quinone acceptor oxidoreductase 1 (NQO1) was measured using the following assay method: BEAS-2B cells (ATCC CRL-9609) were plated in 96-well clear plates at 20,000 cells/well in 75 μL of cell culture media and incubated overnight (37° C., 5% CO2). On day 2, 25 μL of compound or controls were added to the cells for 24 h. On day 3, the medium was aspirated from the plate and the Cells-to-CT™ 1-Step TaqMan® Kit (Ambion A25603) was used to perform expression analysis directly from cultured cells without RNA purification according to the manufacturer's instructions.
Briefly, cells were washed with ice cold PBS and 22.5 μL of room-temperature DNase/Lysis solution was added to the cells and incubated at room temperature for 5 minutes. To stop the reaction, 2.25 μL of stop solution was added to the cell lysate. The samples were diluted 1:5 using nuclease free water and 2.5 μL transferred into the PCR plate. Real-time PCR was performed using the C-1000 Thermal Cycler (Bio-Rad) using human beta actin as the internal control. The cDNA was amplified with a specific primer for NQO1 using the 1-step RT-PCR master mix (Ambion Cells-to-CTTM 1-Step TaqMan® Kit A25603). The primers/probes sets that were used for amplification of cDNA were obtained from TaqMan Gene Expression Assays (Applied Biosystems). The comparative CT (ΔΔCT) relative quantification method was used to calculate the relative mRNA level of the target gene NQO1 as described in the Applied Biosystems Chemistry Guide. The data are expressed as an increase in target gene mRNA compared to vehicle (0.1% DMSO) control and the EC50 values were determined by fitting the data to a four parameter logistic fit using XLfit or XE Runner within ActivityBase.

T1 sequence (Q14145 321-609): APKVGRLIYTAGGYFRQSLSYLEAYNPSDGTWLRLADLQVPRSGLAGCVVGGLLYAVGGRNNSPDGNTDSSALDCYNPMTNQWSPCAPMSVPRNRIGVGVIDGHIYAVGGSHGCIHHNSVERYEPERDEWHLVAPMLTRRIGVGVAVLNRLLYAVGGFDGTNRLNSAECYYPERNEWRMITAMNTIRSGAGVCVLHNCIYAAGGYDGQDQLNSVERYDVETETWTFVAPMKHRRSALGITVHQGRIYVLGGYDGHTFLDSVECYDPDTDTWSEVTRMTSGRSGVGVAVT

Broadly, the IC50 is the concentration that inhibits the measured activity by half. Low values mean inhibition by little substance, high ones a need for much substance. What is called EC50 is the concentration giving half of the maximal effect. The compound `CNC(=O)C1CCCC1C(=O)N1CCc2c(Cl)ccc(OCc3nnn(C)c3C(F)F)c2[C@H]1CN1CCCC1=O` (single isomer, unassigned) [Example 65] displayed an IC50 in experiment [1] of 18 nM. Besides, in experiment [2], the EC50 was 1860 nM.
The matching figures for `CNC(=O)C1OCCC1C(=O)N1CCc2c(Cl)ccc(OCc3nnn(C)c3C(F)F)c2[C@H]1CN1CCCC1=O` (single isomer, unassigned) [Example 82]: 4070 nM and 1740 nM.
The matching figures for `CNC(=O)[C@@]1(C)CCC[C@H]1C(=O)N1CCc2c(Cl)ccc(OCc3nnn(C)c3C(F)F)c2[C@H]1CN1CCC(C)C1=O` (single isomer, unassigned) [Example 95]: 23 nM and 565 nM.
On the same counts, the results for `CNC(=O)[C@@]1(C)CCCC[C@H]1C(=O)N1CCc2c(Cl)ccc(OCc3nnn(C)c3C(F)F)c2[C@H]1CN1CCC(C)C1=O` (single isomer, unassigned) [Example 96] are 37 nM and 3190 nM.
Compound `NC(=O)[C@H]1CCCC[C@H]1C(=O)N1CCc2cccc(OCCCC(=O)N3CCCC3)c2[C@H]1CN1C(=O)c2ccccc2C1=O` [Example 1, (1S,2R)-2-((S)-1-((1 ,3-dioxoisoindolin-2-yl)methyl)-8-(4-oxo-4-(pyrrolidin-1-yl)butoxy)-1,2,3,4-tetrahydroisoquinoline-2-carbonyl)cyclohexane-1-carboxamide] returned an IC50 in experiment [1] of 901 nM. The EC50 in experiment [2] stood at 2030 nM.
The matching figures for `CCNC(=O)[C@H]1CCCC[C@H]1C(=O)N1CCc2cccc(OCCNC(=O)c3cc(C)on3)c2[C@H]1CN1C(=O)c2ccccc2C1=O` [Example 6, N-(2-(((S)-1-((1,3-dioxoisoindolin-2-yl)-methyl)-2((1R,2S)-2-(ethylcarbamoyl)cyclohexane-1-carbonyl)-1,2,3,4-tetrahydroisoguinolin-8-yl)oxy)ethyl)-5-methylisoxazole-3-carboxamide]: 196 nM and 2360 nM.
In turn, `CNC(=O)[C@H]1CCCC[C@H]1C(=O)N1CCc2cccc(O[C@H]3CCN(C(=O)c4cncs4)C3)c2[C@H]1CN1C(=O)c2ccccc2C1=O` [Example 17, (1S,2R)-2-((S)-1-((1,3-dioxoisoindolin-2-yl)methyl)-8-(((S)-1-(thiazole-5-carbonyl)pyrrolidin-3-yl)oxy)-1,2,3,4-tetrahydroisoquinoline-2-carbonyl)-N-methylcyclohexane-1-carboxamide] came in with an IC50 in experiment [1] of 28 nM. Also, the EC50 in experiment [2] was found to be 3070 nM.
On the same counts, the results for `CNC(=O)[C@H]1CCCC[C@H]1C(=O)N1CCc2cccc(O[C@H]3CCN(C(=O)c4cc(C)on4)C3)c2[C@H]1CN1C(=O)c2ccccc2C1=O` [Example 20, (1S,2R)-2-((S)-1-((1,3-dioxoisoindolin-2-yl)methyl)-8-(((S)-1-(5-methylisoxazole-3-carbonyl)pyrrolidin-3-yl)oxy)-1,2,3,4-tetrahydroisoquinoline-2-carbonyl)-N-methylcyclohexane-1-carboxamide] are 29 nM and over 500 nM.
With `O=C(NCC(F)(F)CO)[C@H]1CCCC[C@H]1C(=O)N1CCc2cccc(O[C@H]3CCN(C(=O)c4cncs4)C3)c2[C@H]1CN1C(=O)c2ccccc2C1=O` [Example 34, (1S,2R)-N-(2,2-difluoro-3-hydroxypropyl)-2-((S)-1-((1,3-dioxoisoindolin-2-yl)methyl)-8-(((S)-1-(thiazole-5-carbonyl)pyrrolidin-3-yl)oxy)-1,2,3,4-tetrahydroisoquinoline-2-carbonyl)cyclohexane-1-carboxamide], in experiment [1], the IC50 was found to be 36 nM. Besides, in experiment [2], the EC50 is 193 nM.
The compound `CCNC(=O)[C@H]1CCCC[C@H]1C(=O)N1CCc2cccc(O[C@H]3CCN(C(=O)c4cncs4)C3)c2[C@H]1CN1C(=O)c2ccccc2C1=O` [Example 42, (1S,2R)-2-((S)-1-((1,3-dioxoisoindolin-2-yl)methyl)-8-(((S)-1-(thiazole-5-carbonyl)pyrrolidin-3-yl)oxy)-1,2,3,4-tetrahydroisoquinoline-2-carbonyl)-N-ethylcyclohexane-1-carboxamide] had an IC50 in experiment [1] of 53 nM. The EC50 in experiment [2] is 580 nM.
On to `CNC(=O)[C@H]1CCCC[C@H]1C(=O)N1CCc2c(Br)ccc(O[C@H]3CCN(C(C)=O)C3)c2[C@H]1CN1C(=O)c2ccccc2C1=O` [Example 50, (1S,2R)-2-((S)-8-(((S)-1-acetylpyrrolidin-3-yl)oxy)-5-bromo-1-((1,3-dioxoisoindolin-2-yl)methyl)-1,2,3,4-tetrahydroisoquinoline-2-carbonyl)-N-methylcyclohexane-1-carboxamide], for which, in experiment [1], the IC50 came out at 72 nM.
Same read-out and setting: then `COC(=O)N1CCC[C@H]1C(=O)N1CCc2cccc(O[C@H]3CCN(C(=O)c4cncs4)C3)c2[C@H]1CN1C(=O)c2ccccc2C1=O` [Example 51, methyl (S)-2-((S)-1-((1,3-dioxoisoindolin-2-yl)methyl)-8-(((S)-1-(thiazole-5-carbonyl)pyrrolidin-3-yl)oxy)-1,2,3,4-tetrahydroisoquinoline-2-carbonyl)pyrrolidine-1-carboxylate], with 1700 nM.
In experiment [1], `CNC(=O)[C@H]1CCCC[C@H]1C(=O)N1CCc2c(Cl)ccc(OCc3noc4ccccc34)c2[C@H]1CN1CCCC1=O` [Example 52, (1S,2R)-2-((S)-8-(benzo[d]isoxazol-3-ylmethoxy)-5-chloro-1-((2-oxopyrrolidin-1-yl)methyl)-1,2,3,4-tetrahydroisoquinoline-2-carbonyl)-N-methylcyclohexane-1-carboxamide] had an IC50 of 38 nM. Moreover, the concentration for a half-maximal effect (EC50) in experiment [2] came out at 285 nM.
On the same counts, the results for `CCNC(=O)[C@H]1CCCC[C@H]1C(=O)N1CCc2c(Cl)ccc(OCc3noc4ccccc34)c2[C@H]1CN1CCCC1=O` [Example 53, (1S,2R)-2-((S)-8-(benzo[d]isoxazol-3-ylmethoxy)-5-chloro-1-((2-oxopyrrolidin-1-yl)methyl)-1,2,3,4-tetrahydroisoquinoline-2-carbonyl)-N-ethylcyclohexane-1-carboxamide] are 47 nM and 189 nM.
`NC(=O)[C@H]1CCCC[C@H]1C(=O)N1CCc2c(Cl)ccc(OCc3noc4ccccc34)c2[C@H]1CN1CCCC1=O` [Example 54, (1S,2R)-2-((S)-8-(benzo[d]isoxazol-3-ylmethoxy)-5-chloro-1-((2-oxopyrrolidin-1-yl)methyl)-1,2,3,4-tetrahydroisoquinoline-2-carbonyl)cyclohexane-1-carboxamide, reference compound] came in with an IC50 in experiment [1] of 31 nM. For the same compound, the EC50 in experiment [2] turned out to be 135 nM.
The matching figures for `CNC(=O)[C@H]1CCCC[C@H]1C(=O)N1CCc2c(Br)ccc(OCc3noc(C(C)C)n3)c2[C@H]1CN1CCCC1=O` [Example 55, (1S,2R)-2-((S)-5-bromo-8-((5-isopropyl-1,2,4-oxadiazol-3-yl)methoxy)-1-((2-oxopyrrolidin-1-yl)methyl)-1,2,3,4-tetrahydroisoquinoline-2-carbonyl)-N-methylcyclohexane-1-carboxamide]: 54 nM and 330 nM.
On the same counts, the results for `CNC(=O)[C@H]1CCCC[C@H]1C(=O)N1CCc2c(Br)ccc(OCc3nnn(C)c3C(F)F)c2[C@H]1CN1Cc2ccccc2C1=O` [Example 56, (1S,2R)-2-((S)-5-bromo-8-((5-(difluoromethyl)-1-methyl-1H-1,2,3-triazol-4-yl)methoxy)-1-((1-oxoisoindolin-2-yl)methyl)-1,2,3,4-tetrahydroisoquinoline-2-carbonyl)-N-methylcyclohexane-1-carboxamide] are 13 nM and 124 nM.
As for `CNC(=O)[C@H](C)[C@@H](C)C(=O)N1CCc2c(Cl)ccc(OCc3noc(C(C)C)n3)c2[C@H]1CN1CCCC1=O` [Example 59, (2R,3R)-4-((S)-5-chloro-8-((5-isopropyl-1,2,4-oxadiazol-3-yl)methoxy)-1-((2-oxopyrrolidin-1-yl)methyl)-3,4-dihydroisoquinolin-2(1H)-yl)-N,2,3-trimethyl-4-oxobutanamide], it took 533 nM to reach half-maximal inhibition in experiment [1] (IC50).
